Patent US20240109853A1 (Shanghai Yao Yuan Biotechnology Co., Ltd., priority 2020, published 2024)

Assays:
ALPK1 = ALPK1 (Homo sapiens (Human), UniProt Q96QP1); experiment: ALPK1 in vitro kinase assay (HTRF of TIFA phosphorylation); format: biochemical
[1] = system: ALPK1-dependent NFκB reporter gene activation in HEK293 cells stably expressing an NF-kB reporter (G9 cells); experiment: NFκB gene reporter alkaline phosphatase assay; format: cell-based; conditions: Homo sapiens, HEK293; read-out: NFkB assay IC50
Procedure, shortened: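 Inhibition of ALPK1-driven NF-kB activation is measured as reduced reporter phosphatase activity after agonist challenge with D-glycero-D-manno-6-fluoro-heptose-1β-S-ADP. Cells receive serially diluted compound 30 min beforehand. Values are IC50s from non-linear regression.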

ALPK1, sequence (Q96QP1 whole entry): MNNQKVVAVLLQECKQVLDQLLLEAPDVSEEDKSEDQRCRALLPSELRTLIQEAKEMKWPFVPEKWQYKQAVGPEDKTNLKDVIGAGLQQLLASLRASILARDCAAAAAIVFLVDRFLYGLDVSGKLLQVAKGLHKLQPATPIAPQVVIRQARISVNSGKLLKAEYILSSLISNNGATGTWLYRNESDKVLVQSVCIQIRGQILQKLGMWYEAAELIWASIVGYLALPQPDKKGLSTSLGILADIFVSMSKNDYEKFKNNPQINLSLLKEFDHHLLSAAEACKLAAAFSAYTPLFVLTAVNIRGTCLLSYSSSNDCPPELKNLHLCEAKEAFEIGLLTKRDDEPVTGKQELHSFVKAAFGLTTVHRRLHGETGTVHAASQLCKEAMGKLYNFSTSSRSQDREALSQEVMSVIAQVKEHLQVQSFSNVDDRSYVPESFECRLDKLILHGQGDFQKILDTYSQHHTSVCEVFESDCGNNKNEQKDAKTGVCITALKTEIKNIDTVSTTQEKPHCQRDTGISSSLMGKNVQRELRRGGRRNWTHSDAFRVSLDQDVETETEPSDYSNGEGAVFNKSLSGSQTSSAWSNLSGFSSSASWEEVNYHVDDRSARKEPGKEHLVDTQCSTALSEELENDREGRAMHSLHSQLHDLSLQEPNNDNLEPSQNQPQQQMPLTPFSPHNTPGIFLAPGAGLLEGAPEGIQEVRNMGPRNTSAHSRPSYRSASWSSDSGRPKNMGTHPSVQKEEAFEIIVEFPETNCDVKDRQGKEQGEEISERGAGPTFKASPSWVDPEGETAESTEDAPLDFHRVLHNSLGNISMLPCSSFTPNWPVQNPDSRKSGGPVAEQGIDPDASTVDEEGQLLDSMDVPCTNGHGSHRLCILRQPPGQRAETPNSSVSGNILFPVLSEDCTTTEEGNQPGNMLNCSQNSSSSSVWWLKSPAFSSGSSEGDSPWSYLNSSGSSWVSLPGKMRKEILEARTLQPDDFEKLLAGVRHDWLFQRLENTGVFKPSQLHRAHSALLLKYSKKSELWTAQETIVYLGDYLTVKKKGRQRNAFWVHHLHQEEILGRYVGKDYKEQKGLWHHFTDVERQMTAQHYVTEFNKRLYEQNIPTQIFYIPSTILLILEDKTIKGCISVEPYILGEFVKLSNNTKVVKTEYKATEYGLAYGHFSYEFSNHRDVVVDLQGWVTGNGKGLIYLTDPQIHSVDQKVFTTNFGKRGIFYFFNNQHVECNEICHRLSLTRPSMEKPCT

CC(C)(c1ccc(Br)cc1)c1csc(NC(=O)NCc2ccc(N3CCN(CCO)CC3)nc2)n1 [Example A010, 1-(4-(2-(4-bromophenyl)propan-2-yl)thiazol-2-yl)-3-((6-(4-(2-hydroxyethyl)piperazin-1-yl)pyridin-3-yl)methyl)urea]
IC50 (ALPK1): 200 nM | IC50 [1]: 3950 nM

COc1ccc(C(C)(C)c2csc(NC(=O)NCc3ccc(N4CCC(O)CC4)cc3)n2)cc1 [Example A139, 1-(4-(4-hydroxypiperidin-1-yl)benzyl)-3-(4-(2-(4-methoxyphenyl)propan-2-yl)thiazol-2-yl)urea]
IC50 (ALPK1): 261 nM | IC50 [1]: 1350 nM

C#C[C@](C)(c1ccc(OC)cc1)c1csc(NC(N)=O)n1 [Example A172, (R)-1-(4-(2-(4-methoxyphenyl)but-3-yn-2-yl)thiazol-2-yl)urea]
IC50 (ALPK1): 36 nM | IC50 [1]: 1280 nM

CC(C)(c1ccc(Br)cc1)c1csc(NC(=O)NCc2cnc(N3CCNCC3)cn2)n1 [Example A093, 1-(4-(2-(4-bromophenyl)propan-2-yl)thiazol-2-yl)-3-((5-(piperazin-1-yl)pyrazin-2-yl)methyl)urea]
IC50 (ALPK1): 9 nM | IC50 [1]: 320 nM

COc1ccc(C(C)(C)c2csc(NC(=O)NCCCS(=O)(=O)N3CCC(N)C3)n2)cc1 (centres unmarked) [Example A229, 1-(3-((3-aminopyrrolidin-1-yl)sulfonyl)propyl)-3-(4-(2-(4-methoxyphenyl)propan-2-yl)thiazol-2-yl)urea]
IC50 (ALPK1): 169 nM | IC50 [1]: 2270 nM

C#C[C@](C)(c1ccc(OC)cc1)c1csc(NC(=O)NCCO)n1 [Example A169, (R)-1-(2-hydroxyethyl)-3-(4-(2-(4-methoxyphenyl)but-3-yn-2-yl)thiazol-2-yl)urea]
IC50 (ALPK1): 23 nM | IC50 [1]: 1670 nM

COc1ccc(C(C)(C)c2csc(NC(=O)NCc3ccc(C4CCNCC4)c(F)c3)n2)cc1 [Example A224, 1-(3-fluoro-4-(piperidin-4-yl)benzyl)-3-(4-(2-(4-methoxyphenyl)propan-2-yl)thiazol-2-yl)urea]
IC50 (ALPK1): 21 nM | IC50 [1]: 730 nM

C#C[C@](C)(c1ccc(Cl)cc1)c1csc(NC(=O)NCCS(N)(=O)=O)n1 [Example A288, 2-(3-(4-(2-(4-chlorophenyl)but-3-yn-2-yl)thiazol-2-yl)ureido)ethanesulfona-mide]
IC50 (ALPK1): 270 nM | IC50 [1]: 1210 nM

CC(C)(c1ccc(Br)cc1)c1csc(NC(=O)NCc2ccc(OCCCN3CCNCC3)cc2)n1 [Example A035, 1-(4-(2-(4-bromophenyl)propan-2-yl)thiazol-2-yl)-3-(4-(3-(piperazin-1-yl)propoxy)benzyl)urea]
IC50 (ALPK1): 52 nM | IC50 [1]: 2030 nM

CC(C)(c1ccc(I)cc1)c1csc(NC(=O)NCc2ccc(N3CCNCC3)cc2)n1 [Example A067, 1-(4-(2-(4-iodophenyl)propan-2-yl)thiazol-2-yl)-3-(4-(piperazin-1-yl)benzyl)urea]
IC50 (ALPK1): 28 nM | IC50 [1]: 1110 nM

O=C(NCc1ccc(N2CCNCC2)cc1)Nc1nc(C2(c3ccc(Br)cc3)CCCC2)cs1 [Example A045, 1-(4-(1-(4-bromophenyl)cyclopentyl)thiazol-2-yl)-3-(4-(piperazin-1-yl)benzyl)urea]
IC50 (ALPK1): 24 nM | IC50 [1]: 1070 nM

C#CC(C)(c1ccc(Cl)cc1)c1csc(NC(=O)N2CCC(CO)CC2)n1 (centres unmarked) [Example A264, N-(4-(2-(4-chlorophenyl)but-3-yn-2-yl)thiazol-2-yl)-4-(hydroxymethyl)piperidine-1-carboxamide]
IC50 (ALPK1): 1370 nM | IC50 [1]: 2810 nM

C#CC(C)(c1ccc(Br)cc1)c1csc(NC(=O)NCCN2CCOCC2)n1 (centres unmarked) [Example A155, 1-(4-(2-(4-bromophenyl)but-3-yn-2-yl)thiazol-2-yl)-3-(2-morpholinoethyl)urea]
IC50 (ALPK1): 30 nM | IC50 [1]: 900 nM

COc1ccc(C(C)(C)c2csc(NC(=O)NCc3ccc(C(=O)NC4CCNCC4)cc3)n2)cc1 [Example A042, 4-((3-(4-(2-(4-methoxyphenyl)propan-2-yl)thiazol-2-yl)ureido)methyl)-N-(piperidin-4-yl)benzamide]
IC50 (ALPK1): 15 nM | IC50 [1]: 1000 nM

COc1ccc(C(C)(C)c2csc(NC(=O)NCCCC(=O)NC3CCN(C)CC3)n2)cc1 [Example A070, 4-(3-(4-(2-(4-methoxyphenyl)propan-2-yl)thiazol-2-yl)ureido)-N-(1-methylpiperidin-4-yl)butanamide]
IC50 (ALPK1): 140 nM | IC50 [1]: 16900 nM

COc1ccc(C(C)(C)c2csc(NC(=O)NCc3cnc(N4CCNCC4)nc3)n2)cc1 [Example A086, 1-(4-(2-(4-methoxyphenyl)propan-2-yl)thiazol-2-yl)-3-((2-(piperazin-1-yl)pyrimidin-5-yl)methyl)urea]
IC50 (ALPK1): 16 nM | IC50 [1]: 390 nM

CCNC(=O)Nc1nc(C(C)(C)c2ccc(Br)cc2)cs1 [Example A241, 1-(4-(2-(4-bromophenyl)propan-2-yl)thiazol-2-yl)-3-ethylurea]
IC50 (ALPK1): 98 nM | IC50 [1]: 3410 nM

COc1ccc(C(C)(C)c2csc(NC(=O)NCc3ccc(N4CC5CC4CN5)cc3)n2)cc1 (centres unmarked) [Example A062, 1-(4-(2,5-diazabicyclo[2.2.1]heptan-2-yl)benzyl)-3-(4-(2-(4-methoxyphenyl)propan-2-yl)thiazol-2-yl)urea]
IC50 (ALPK1): 60 nM | IC50 [1]: 1330 nM

CCN(CC)CCCNC(=O)Nc1nc(C(C)(C)c2ccc(OC)cc2)cs1 [Example A146, 1-(3-(diethylamino)propyl)-3-(4-(2-(4-methoxyphenyl)propan-2-yl)thiazol-2-yl)urea]
IC50 (ALPK1): 124 nM | IC50 [1]: 3070 nM

CC(C)(c1ccc(Br)cc1)c1csc(NC(=O)NCc2ccc(NCCN)c(F)c2)n1 [Example A198, 1-(4-((2-aminoethyl)amino)-3-fluorobenzyl)-3-(4-(2-(4-bromophenyl)propan-2-yl)thiazol-2-yl)urea]
IC50 (ALPK1): 18 nM | IC50 [1]: 1320 nM

C#CC(C)(c1ccc(Cl)cc1)c1csc(NC(=O)NCc2ccc(N3CCNCC3)c(F)c2)n1 (centres unmarked) [Example A262, 1-(4-(2-(4-chlorophenyl)but-3-yn-2-yl)thiazol-2-yl)-3-(3-fluoro-4-(piperazin-1-yl)benzyl)urea]
IC50 (ALPK1): 13 nM | IC50 [1]: 670 nM

CC(C)(c1ccc(Br)cc1)c1csc(NC(=O)NCc2ccc(N3CCC(N)CC3)cc2)n1 [Example A204, 1-(4-(4-aminopiperidin-1-yl)benzyl)-3-(4-(2-(4-bromophenyl)propan-2-yl)thiazol-2-yl)urea]
IC50 (ALPK1): 9 nM | IC50 [1]: 1890 nM

CC(C)(c1ccc(Br)cc1)c1csc(NC(=O)NCCCN)n1 [Example A061, 1-(3-aminopropyl)-3-(4-(2-(4-bromophenyl)propan-2-yl)thiazol-2-yl)urea]
IC50 (ALPK1): 195 nM | IC50 [1]: 1990 nM

COc1ccc(C(C)(C)c2csc(NC(=O)NCc3ccc(NCCO)nc3)n2)cc1 [Example A014, 1-((6-((2-hydroxyethyl)amino)pyri-din-3-yl)methyl)-3-(4-(2-(4-methoxyphenyl)propan-2-yl)thiazol-2-yl)urea]
IC50 (ALPK1): 160 nM | IC50 [1]: 880 nM

CC(NC(=O)Nc1nc(C(C)(C)c2ccc(Br)cc2)cs1)c1ccc(N2CCNCC2)cc1 (centres unmarked) [Example A073, 1-(4-(2-(4-bromophenyl)propan-2-yl)thiazol-2-yl)-3-(1-(4-(piperazin-1-yl)phenyl)ethyl)urea]
IC50 (ALPK1): 85 nM | IC50 [1]: 2790 nM
